The test has as its system Swiss mice, Sarcoma 180 sc, mean tumor weight T/C. As to the kind of experiment: NCI In Vivo Anticancer Drug Screen. Data for tumor model Sarcoma 180 (subcutaneous) in Swiss mice. The note with it: endpoint: mean tumor weight, higher = larger tumour. The procedure, abridged:
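Transplantable tumors were established in mice, compound was given, then survival or tumor size was recorded. The treated value was divided by the vehicle-control value.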

Where [1] appears, read: dose: 125.0 mg/kg/injection, schedule: Q01DX007 (ip), vehicle: carboxymethylcellulose (CMC).
The mark [2] stands for this setting: dose: 125.0 mg/kg/injection, schedule: Q01DX007 (ip), vehicle: saline.

Values joined by “and” are separate entries in the source; they are usually repeats but may differ in a detail not shown here. Equal entries are not always repeated.

The T/C is the ratio of treated to control.

In the case of `CCOC(=O)c1ccc(N=NN(C)C)cc1`, the T/C was 74 % of control (dose: 62.0 mg/kg/injection, schedule: Q01DX007 (ip), vehicle: carboxymethylcellulose (CMC)); 49 % of control under setting [1]; 23 % of control (dose: 187.0 mg/kg/injection, schedule: Q01DX007 (ip), vehicle: carboxymethylcellulose (CMC)); 12 % of control (dose: 250.0 mg/kg/injection, schedule: Q01DX007 (ip), vehicle: carboxymethylcellulose (CMC)).
On to `O=C(O)C(=O)c1ccc(-c2ccccc2)cc1`, for which the T/C was 83 % of control (dose: 4.0 mg/kg/injection, schedule: Q01DX007 (ip), vehicle: carboxymethylcellulose (CMC)); 106 % of control (dose: 8.0 mg/kg/injection, schedule: Q01DX007 (ip), vehicle: carboxymethylcellulose (CMC)); 71 % of control (dose: 16.0 mg/kg/injection, schedule: Q01DX007 (ip), vehicle: carboxymethylcellulose (CMC)); 80 % of control (dose: 32.0 mg/kg/injection, schedule: Q01DX007 (ip), vehicle: carboxymethylcellulose (CMC)).
With `O=C1C=CC2(CCC23C=CC(=O)O3)O1` (stereo unspecified), the T/C (dose: 40.0 mg/kg/injection, schedule: Q01DX007 (ip), vehicle: saline) is 88 % of control.
In the case of `CCN(CC)c1ccc2cc3ccc(=[N+](CC)CC)cc-3oc2c1`, the T/C reads like this: (dose: 0.42 mg/kg/injection, schedule: Q#A X014 (ip), vehicle: carboxymethylcellulose (CMC)) 84 % of control; (dose: 0.83 mg/kg/injection, schedule: Q#A X014 (ip), vehicle: carboxymethylcellulose (CMC)) 106 % of control; (dose: 1.67 mg/kg/injection, schedule: Q#A X014 (ip), vehicle: carboxymethylcellulose (CMC)) 82 % of control; (dose: 3.35 mg/kg/injection, schedule: Q#A X014 (ip), vehicle: carboxymethylcellulose (CMC)) 73 % of control; (dose: 6.25 mg/kg/injection, schedule: Q01DX007 (ip), vehicle: other) 111 % of control; (dose: 12.5 mg/kg/injection, schedule: Q01DX007 (ip), vehicle: other) 98 % of control.
Take `CN1CCC23c4c5ccc(O)c4OC2C(O)C=CC3C1C5` (stereo unspecified): the T/C is, setting by setting: (dose: 62.0 mg/kg/injection, schedule: Q01DX007 (ip), vehicle: saline) 90 % of control; under setting [2], 99 % of control; (dose: 250.0 mg/kg/injection, schedule: Q01DX007 (ip), vehicle: saline) 48 % of control.
In the case of `COc1cc([C@@H]2c3cc4c(cc3[C@H](O)[C@H]3COC(=O)[C@H]23)OCO4)cc(OC)c1OC`, the T/C (dose: 0.45 mg/kg/injection, schedule: Q01DX007 (ip), vehicle: carboxymethylcellulose (CMC)) was 90 % of control; the T/C (dose: 0.9 mg/kg/injection, schedule: Q01DX007 (ip), vehicle: carboxymethylcellulose (CMC)) is 92 % of control; the T/C (dose: 175.0 micrograms/kg/injection, schedule: Q01DX007 (ip), vehicle: carboxymethylcellulose (CMC)) was 88 % of control; the T/C (dose: 350.0 micrograms/kg/injection, schedule: Q01DX007 (ip), vehicle: carboxymethylcellulose (CMC)) is 77 % of control; the T/C (dose: 1400.0 micrograms/kg/injection, schedule: Q01DX007 (ip), vehicle: carboxymethylcellulose (CMC)) is 71 % of control.
For the compound `COc1ccc2c(=O)cc(-c3ccccc3)n(C)c2c1`, the T/C is, setting by setting: (dose: 50.0 mg/kg/injection, schedule: Q01DX007 (ip), vehicle: saline) 68 % of control; (dose: 100.0 mg/kg/injection, schedule: Q01DX007 (ip), vehicle: saline) 110 % of control; (dose: 200.0 mg/kg/injection, schedule: Q01DX007 (ip), vehicle: saline) 109 % of control; (dose: 400.0 mg/kg/injection, schedule: Q01DX007 (ip), vehicle: saline) 76 % of control.
Take `SCc1ccccn1`: the T/C (dose: 62.0 mg/kg/injection, schedule: Q01DX007 (ip), vehicle: other) was 117 % of control and the T/C (dose: 125.0 mg/kg/injection, schedule: Q01DX007 (ip), vehicle: other) is 103 % of control.
With `Nc1ncnc2c1ccn2C1OC(CO)C(O)C1O` (stereo unspecified), the T/C (dose: 0.62 mg/kg/injection, schedule: Q#A X014 (ip), vehicle: carboxymethylcellulose (CMC)) was 90 % of control.
`O=C(O)CCCNC(=O)c1ccc([N+](=O)[O-])cc1`: the T/C runs as follows: (dose: 125.0 mg/kg/injection, schedule: Q01DX007 (ip), vehicle: methylcellulose (MC)) 67 % of control; (dose: 250.0 mg/kg/injection, schedule: Q01DX007 (ip), vehicle: methylcellulose (MC)) 78 % of control.
`CN(C)/C=N/c1nccs1`: the T/C (dose: 83.0 mg/kg/injection, schedule: Q01DX007 (ip), vehicle: saline) was 58 % of control and 70 % of control; the T/C under setting [2] was 34 % of control and 43 % of control.
For `COCCOC1=C(N2CC2)C(=O)C(OCCOC)=C(N2CC2)C1=O`, the T/C reads like this: (dose: 0.89 mg/kg/injection, schedule: Q01DX007 (sc), vehicle: saline) 61 % of control; (dose: 1.3 mg/kg/injection, schedule: Q01DX007 (sc), vehicle: saline) 72 % of control; (dose: 1.6 mg/kg/injection, schedule: Q01DX007 (oral), vehicle: saline) 95 % of control; (dose: 2.0 mg/kg/injection, schedule: Q01DX001 (ip), vehicle: saline) 97 % of control; (dose: 2.0 mg/kg/injection, schedule: Q01DX006 (iv), vehicle: saline) 71 % of control; (dose: 2.0 mg/kg/injection, schedule: Q01DX007 (im), vehicle: saline) 59 % of control. Further, the T/C runs as follows: (dose: 2.0 mg/kg/injection, schedule: Q01DX007 (ip), vehicle: saline) 56 % of control; (dose: 2.0 mg/kg/injection, schedule: Q01DX007 (sc), vehicle: saline) 45 % of control; (dose: 2.0 mg/kg/injection, schedule: Q03DX003 (ip), vehicle: saline) 64 % of control; (dose: 2.4 mg/kg/injection, schedule: Q01DX007 (oral), vehicle: saline) 75 % of control; (dose: 3.0 mg/kg/injection, schedule: Q01DX001 (ip), vehicle: saline) 48 % of control; (dose: 3.0 mg/kg/injection, schedule: Q01DX006 (iv), vehicle: saline) 48 % of control. Also, the T/C by setting is: (dose: 3.0 mg/kg/injection, schedule: Q01DX007 (im), vehicle: saline) 59 % of control; (dose: 3.0 mg/kg/injection, schedule: Q01DX007 (ip), vehicle: saline) 37 % of control; (dose: 3.0 mg/kg/injection, schedule: Q01DX007 (sc), vehicle: saline) 30 % of control; (dose: 3.0 mg/kg/injection, schedule: Q03DX003 (ip), vehicle: saline) 50 % of control; (dose: 3.6 mg/kg/injection, schedule: Q01DX007 (oral), vehicle: saline) 73 % of control; (dose: 4.0 mg/kg/injection, schedule: Q01DX006 (iv), vehicle: saline) 21 % of control. Also, the T/C by setting is: (dose: 4.0 mg/kg/injection, schedule: Q03DX003 (ip), vehicle: saline) 51 % of control; (dose: 5.3 mg/kg/injection, schedule: Q01DX007 (oral), vehicle: saline) 38 % of control; (dose: 6.0 mg/kg/injection, schedule: Q01DX001 (ip), vehicle: saline) 83 % of control; (dose: 6.0 mg/kg/injection, schedule: Q03DX003 (ip), vehicle: saline) 33 % of control; (dose: 8.0 mg/kg/injection, schedule: Q01DX007 (oral), vehicle: saline) 34 % of control; (dose: 12.0 mg/kg/injection, schedule: Q01DX001 (ip), vehicle: saline) 32 % of control.
`Nc1nc(SCc2ccccc2)c2ncn(CCCl)c2n1`: the T/C by setting is: (dose: 56.0 mg/kg/injection, schedule: Q01DX007 (ip), vehicle: carboxymethylcellulose (CMC)) 36 % of control and 55 % of control; (dose: 83.0 mg/kg/injection, schedule: Q01DX007 (ip), vehicle: carboxymethylcellulose (CMC)) 35 % of control and 41 % of control; under setting [1], 12 % of control and 18 % of control.
In the case of `CCN(CC)CCNc1ccc([N+](=O)[O-])c2sc3ccccc3c(=O)c12`, the T/C was 71 % of control (dose: 14.0 mg/kg/injection, schedule: Q#A X014 (ip), vehicle: saline); 65 % of control (dose: 21.0 mg/kg/injection, schedule: Q#A X014 (ip), vehicle: saline); 65 % of control (dose: 31.5 mg/kg/injection, schedule: Q#A X014 (ip), vehicle: saline); 34 % of control (dose: 47.5 mg/kg/injection, schedule: Q#A X014 (ip), vehicle: saline).
Take `CC(=O)Nc1c(Cl)cc2c(c1Cl)Cc1cc([N+](=O)[O-])ccc1-2`: the T/C (dose: 222.0 mg/kg/injection, schedule: Q01DX007 (ip), vehicle: saline) is 59 % of control.
